Results as given in patent US6852695B2, “Orally active fraction of momordica charantia, active peptides thereof, and their use in the treatment of diabetes” (Theracos, Inc., priority 1997, dated 2005).

Columns and labels:
[1] = test system: normal rats; test: Oral glucose tolerance test in normal rats; assay type: in vivo, rat; settings: compared to vehicle treated animals, FIG. 11
Excerpt: FIG. 11 represents the hypoglycemic activity of MC6.1 and its derivators, MC6.2 and 6.3 analogs in oral glucose tolerance test in normal rats.

[2] = test system: SD rats; test: Comparison of MC6 (oral, i.v.) with i.v. r-insulin during glucose infusion in SD rats; assay type: in vivo, rat; settings: 500 μg MC6 i.v. or 150 mU r-insulin i.v. at 60 minutes following glucose infusion, FIG. 5
Description: In the next experiment, orally administered purified fraction MC6 (500 μg) was compared with i.v. injection of insulin (150 mU) in SD rats. Animals were divided into four groups and starved for three hours. Group 1 received PBS only; group 2 was given MC6 orally 60 minutes before glucose infusion; group 3 received 150 mU r-insulin (Humalin-R® of Novo-Nordisk) i.v. at 60 minutes following glucose infusion through jugular vein and group 4 received 500 μg MC6 in 1 ml PBS (i.v.) at 60 minutes following glucose infusion through jugular vein. In all cases, glucose infusion was at 18 mg/min/kg. Blood samples were collected from the carotid artery at different time intervals and quantitative plasma glucose levels were measured […].

Substance | lowering blood glucose in oral glucose tolerance test [1] | hypoglycemic profile, systemic (i.v.) injection [2]
6.3: 7-a.a. derivative of MC6.1: K-T-N-M-K-H-M (SEQ ID NO:03) (KTNMKHM) | effective in lowering blood glucose | 
r-insulin: r-insulin (Humalin-R of Novo-Nordisk), 150 mU i.v., comparator |  | identical hypoglycemic profile
